Results on 13 compounds are retold here after patent US20260193293A1, “PEPTIDES CAPABLE OF INHIBITING PROTEIN-PROTEIN INTERACTIONS AT GABAB1A SUBUNIT AND USES THEREOF” (UNIVERSITY OF COPENHAGEN, priority 2022, published 2026).

Where “and” joins values, the source holds several entries; their conditions need not be identical. Equal entries are not always repeated. Where two headings read alike, the source gives them in different places. Non-standard residues stand in square brackets, D forms with d. Residues, ends and D or L forms follow the SMILES beside them. *: point of attachment. Bn = c1ccc(C*)cc1; Sar = CNCC(=O)O

The target of this assay is Sushi domains (SD1/2) protein. Nature of the assay: Fluorescence polarization (FP) competition assay with AJAP-1probe, calculated Ki. The class given is binding. The method, boiled down:
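Competition against 25 nM TAMRA-labelled peptide probe binding SD1/2, in PBS pH 7.4 with 1% BSA at rt, read at 530/580 nm. IC50 from sigmoidal dose-response fits, at least triplicate; Ki calculated from IC50 using probe Kd from saturation binding.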

[1] abbreviates: Table 1, affinity maturation, mean ± SEM, n ≥ 3, read-out: Ki.
The mark [2] stands for this setting: Table 13, peptides for affinity maturation, read-out: Ki (nM) mean ± SEM.
Setting [3] is: Table 16, ncAAs incorporated peptides, read-out: Ki (nM) mean ± SEM.
Setting [4] is: CPP tagged peptides overview, SD1/2 binding affinity, mean ± SEM, n ≥ 3, read-out: Ki.
Setting [5] is: Table 14, CPPs tagged peptides, read-out: Ki (nM) mean ± SEM.

On to `CC[C@H](C)[C@H](NC(=O)[C@H](Cc1c[nH]c2ccccc12)NC(=O)[C@H](CO)NC(=O)[C@H](CC(=O)O)NC(=O)[C@H](CC(=O)O)NC(=O)[C@H](CCC(=O)O)NC(C)=O)C(=O)N[C@@H](Cc1c[nH]c2ccccc12)C(=O)N[C@@H](Cc1c[nH]c2ccccc12)C(=O)NCC(=O)N1CCC[C@H]1C(=O)N[C@H](C(=O)NCC(=O)N[C@@H](CC(=O)O)C(=O)N[C@@H](CCC(=O)O)C(=O)N[C@@H](CC(=O)O)C(N)=O)[C@@H](C)O` [Peptide 27, Ac-EDDSWIWWGPTGDED-NH2] (Ac-EDDSWIWWGPTGDED-NH2), for which the Ki reads like this: under setting [1], 16 ± 1 nM; under setting [2], 16 ± 1 nM. Moreover, under “comparator printed as 9”, the “fold better affinity than 9” value is reported as 3.8 fold.
For the compound `CC[C@H](C)[C@H](NC(=O)[C@H](Cc1c[nH]c2ccccc12)NC(=O)[C@H](CO)NC(=O)[C@H](CC(=O)O)NC(=O)[C@H](CC(=O)O)NC(=O)[C@H](CCC(=O)O)NC(C)=O)C(=O)N[C@@H](Cc1c[nH]c2ccccc12)C(=O)N[C@@H](Cc1c[nH]c2ccccc12)C(=O)N[C@@H](Cc1ccc(O)cc1)C(=O)NCC(=O)N[C@@H](C)C(=O)N[C@@H](CC(=O)O)C(=O)N[C@H](C(=O)N[C@@H](CC(=O)O)C(N)=O)[C@@H](C)O` [Peptide 28] (Ac-EDDSWIWWYGADTD-NH2), the Ki was 18 ± 1 nM under setting [1] and 18 ± 1 nM under setting [2].
Turning to `CC[C@H](C)[C@H](NC(=O)[C@H](Cc1c[nH]c2ccccc12)NC(=O)[C@H](CO)NC(=O)[C@H](CC(=O)O)NC(=O)[C@H](CC(=O)O)NC(=O)[C@H](CCC(=O)O)NC(C)=O)C(=O)N[C@@H](CC(=O)O)C(=O)N[C@@H](Cc1c[nH]c2ccccc12)C(=O)NCC(=O)N1CCC[C@H]1C(=O)N[C@H](C(=O)NCC(=O)N[C@@H](CC(=O)O)C(=O)N[C@@H](CCC(=O)O)C(=O)N[C@@H](CC(=O)O)C(N)=O)[C@@H](C)O` [Peptide 29, Ac-EDDSWIDWGPTGDED-NH2] (Ac-EDDSWIDWGPTGDED-NH2), the Ki was 5.6 ± 0.7 nM under setting [1] and 5.6 ± 0.7 nM under setting [2].
Consider `CC[C@H](C)[C@H](NC(=O)[C@H](Cc1c[nH]c2ccccc12)NC(=O)[C@H](CO)NC(=O)[C@H](CC(=O)O)NC(=O)[C@H](CC(=O)O)NC(=O)[C@H](CCC(=O)O)NC(C)=O)C(=O)N[C@@H](CC(=O)O)C(=O)N[C@@H](Cc1c[nH]c2ccccc12)C(=O)N[C@@H](Cc1ccc(O)cc1)C(=O)NCC(=O)N[C@@H](C)C(=O)N[C@@H](CC(=O)O)C(=O)N[C@H](C(=O)N[C@@H](CC(=O)O)C(N)=O)[C@@H](C)O` [Peptide 30] (Ac-EDDSWIDWYGADTD-NH2), for which the Ki is, setting by setting: under setting [1], 11 ± 0.1 nM; under setting [2], 11 ± 0.1 nM.
Regarding `CCOc1ccc(C[C@H](NC(=O)[C@H](CC(=O)O)NC(=O)[C@H](CC(=O)O)NC(=O)[C@H](CC(=O)O)NC(=O)[C@H](CCC(=O)O)NC(C)=O)C(=O)N[C@H](C(=O)N[C@@H](CC(=O)O)C(=O)N[C@@H](Cc2c[nH]c3ccccc23)C(=O)N[C@@H](Cc2ccc(O)cc2)C(=O)N[C@@H](CC(=O)O)C(=O)N[C@@H](CO)C(=O)N[C@@H](CC(=O)O)C(=O)N[C@@H](CC(=O)O)C(=O)N[C@@H](CC(=O)O)C(N)=O)[C@@H](C)CC)cc1` [Peptide 32], the Ki reads like this: under setting [1], 5.3 ± 0.2 nM; under setting [3], 5.3 ± 0.2 nM.
With `CC[C@H](C)[C@H](NC(=O)[C@H](Cc1ccc(OCc2ccccc2)cc1)NC(=O)[C@H](CC(=O)O)NC(=O)[C@H](CC(=O)O)NC(=O)[C@H](CC(=O)O)NC(=O)[C@H](CCC(=O)O)NC(C)=O)C(=O)N[C@@H](CC(=O)O)C(=O)N[C@@H](Cc1c[nH]c2ccccc12)C(=O)N[C@@H](Cc1ccc(O)cc1)C(=O)N[C@@H](CC(=O)O)C(=O)N[C@@H](CO)C(=O)N[C@@H](CC(=O)O)C(=O)N[C@@H](CC(=O)O)C(=O)N[C@@H](CC(=O)O)C(N)=O` [Peptide 33], the Ki under setting [1] was 9.3 ± 0.2 nM and the Ki under setting [3] was 9.3 ± 0.2 nM.
For the compound `CCOc1ccc(C[C@H](NC(=O)[C@H](CC(=O)O)NC(=O)[C@H](CC(=O)O)NC(=O)[C@H](CC(=O)O)NC(=O)[C@H](CCC(=O)O)NC(C)=O)C(=O)N[C@H](C(=O)N[C@@H](CC(=O)O)C(=O)N[C@@H](Cc2c[nH]c3ccccc23)C(=O)NCC(=O)N2CCC[C@H]2C(=O)N[C@H](C(=O)N[C@@H](CO)C(=O)N[C@@H](CC(=O)O)C(=O)N[C@@H](CC(=O)O)C(=O)N[C@@H](CC(=O)O)C(N)=O)[C@@H](C)O)[C@@H](C)CC)cc1` [Peptide 34] (Ac-EDDDY(Et)IDWGPTSDDD-NH2), the Ki runs as follows: under setting [1], 6.5 ± 0.4 nM; under setting [3], 6.5 ± 0.4 nM.
With `CC[C@H](C)[C@H](NC(=O)[C@H](Cc1ccc(OCc2ccccc2)cc1)NC(=O)[C@H](CC(=O)O)NC(=O)[C@H](CC(=O)O)NC(=O)[C@H](CC(=O)O)NC(=O)[C@H](CCC(=O)O)NC(C)=O)C(=O)N[C@@H](CC(=O)O)C(=O)N[C@@H](Cc1c[nH]c2ccccc12)C(=O)NCC(=O)N1CCC[C@H]1C(=O)N[C@H](C(=O)N[C@@H](CO)C(=O)N[C@@H](CC(=O)O)C(=O)N[C@@H](CC(=O)O)C(=O)N[C@@H](CC(=O)O)C(N)=O)[C@@H](C)O` [Peptide 35] (Ac-EDDDY(Bn)IDWGPTSDDD-NH2), the Ki by setting is: under setting [1], 9.5 ± 0.3 nM; under setting [3], 9.5 ± 0.3 nM.
Consider `CC(=O)N[C@@H](CCC(=O)O)C(=O)N[C@@H](CCC(=O)O)C(=O)N[C@@H](CC(=O)O)C(=O)N[C@@H](CC(=O)O)C(=O)N[C@@H](CO)C(=O)N[C@@H](CC(=O)O)C(=O)N[C@H](C(=O)N[C@@H](Cc1c[nH]c2ccccc12)C(=O)N[C@@H](Cc1c[nH]c2ccccc12)C(=O)NCC(=O)NCC(=O)N[C@@H](C)C(=O)N[C@@H](CC(=O)O)C(=O)N[C@H](C(=O)N[C@@H](CC(=O)O)C(=O)N[C@@H](Cc1ccc(O)cc1)C(=O)N[C@@H](C)C(=O)N[C@@H](CC(=O)O)C(N)=O)[C@@H](C)O)C(C)C` [Peptide 36] (Ac-EEDDSDVWWGGADTDYAD-NH2), for which the Ki (Table 3, SPOT hit validation and previously reported peptides, read-out: Ki (nM) mean ± SEM) is 244 ± 13 nM; the Ki (Table 4, truncation and elongation scans of APP epitope, listed as EEDDSDVWWGGADTDYAD, read-out: Ki (nM) mean ± SEM) is 244 nM and 233 nM.
On to `CC[C@H](C)[C@H](NC(=O)[C@H](Cc1ccccc1)NC(=O)[C@H](CCC(=O)O)NC(=O)[C@@H](NC(=O)[C@H](CCC(=O)O)NC(C)=O)[C@@H](C)O)C(=O)N[C@@H](C)C(=O)N[C@@H](Cc1c[nH]c2ccccc12)C(=O)N[C@@H](Cc1ccc(O)cc1)C(=O)NCC(=O)N[C@@H](C)C(=O)N[C@@H](CC(=O)O)C(=O)N[C@H](C(=O)N[C@@H](CC(=O)O)C(N)=O)[C@@H](C)O` [Peptide 37] (Ac-ETEFIAWYGADTD-NH2), for which the Ki by setting is: under setting [1], 95 ± 5 nM; under setting [2], 95 ± 5 nM.
As to `CC[C@H](C)[C@H](NC(=O)[C@H](Cc1ccccc1)NC(=O)[C@H](CCC(=O)O)NC(=O)[C@@H](NC(=O)[C@H](CCC(=O)O)NC(C)=O)[C@@H](C)O)C(=O)N[C@@H](C)C(=O)N[C@@H](Cc1c[nH]c2ccccc12)C(=O)NCC(=O)N(C)CC(=O)N[C@H](C(=O)NCC(=O)N[C@@H](CC(=O)O)C(=O)N[C@@H](CCC(=O)O)C(=O)N[C@@H](CC(=O)O)C(N)=O)[C@@H](C)O` [Peptide 38] (Ac-ETEFIAWG[Sar]TGDED-NH2), the Ki is 32 ± 2 nM under setting [1]; 32 ± 2 nM (Table 8, Ala-, D-amino acids and N-methylation scans of AJAP-1WT, read-out: Ki (nM) mean ± SEM); 32 ± 2 nM under setting [2].
As to `CC[C@H](C)[C@H](NC(=O)[C@H](Cc1c[nH]c2ccccc12)NC(=O)[C@H](CC(=O)O)NC(=O)[C@H](CC(=O)O)NC(=O)[C@H](CC(=O)O)NC(=O)[C@H](CCC(=O)O)NC(=O)[C@H](CO)NC(=O)CNC(=O)CNC(=O)CNC(=O)CNC(=O)[C@H](CCCNC(=N)N)NC(=O)[C@H](CCCNC(=N)N)NC(=O)[C@H](CCCNC(=N)N)NC(=O)[C@H](CCCNC(=N)N)NC(=O)[C@H](CCCNC(=N)N)NC(=O)[C@H](CCCNC(=N)N)NC(=O)[C@H](CCCNC(=N)N)NC(=O)[C@H](CCCNC(=N)N)NC(C)=O)C(=O)N[C@@H](CC(=O)O)C(=O)N[C@@H](Cc1c[nH]c2ccccc12)C(=O)N[C@@H](Cc1ccc(O)cc1)C(=O)N[C@@H](CC(=O)O)C(=O)N[C@@H](CO)C(=O)N[C@@H](CC(=O)O)C(=O)N[C@@H](CC(=O)O)C(=O)N[C@@H](CC(=O)O)C(N)=O` [Peptide R8-FL-16] (Ac-RRRRRRRRGGGGSEDDDWIDWYDSDDD-NH2), the Ki under setting [4] was 280 ± 2 nM and the Ki under setting [5] is 280 ± 2 nM.
For `CC[C@H](C)[C@H](NC(=O)[C@H](Cc1c[nH]c2ccccc12)NC(=O)[C@H](CC(=O)O)NC(=O)[C@H](CC(=O)O)NC(=O)[C@H](CC(=O)O)NC(=O)[C@H](CCC(=O)O)NC(=O)[C@H](CO)NC(=O)CNC(=O)CNC(=O)CNC(=O)CNC(=O)[C@H](CCCNC(=N)N)NC(=O)[C@H](CCCNC(=N)N)NC(=O)[C@H](CCCNC(=N)N)NC(=O)[C@H](CCCNC(=N)N)NC(=O)[C@H](CCCNC(=N)N)NC(=O)[C@H](CCCNC(=N)N)NC(=O)[C@H](CCCNC(=N)N)NC(=O)[C@H](CCCNC(=N)N)NC(C)=O)C(=O)N[C@@H](CC(=O)O)C(=O)N[C@@H](Cc1c[nH]c2ccccc12)C(=O)NCC(=O)N1CCC[C@H]1C(=O)N[C@H](C(=O)N[C@@H](CO)C(=O)N[C@@H](CC(=O)O)C(=O)N[C@@H](CC(=O)O)C(=O)N[C@@H](CC(=O)O)C(N)=O)[C@@H](C)O` [Peptide R8-FL-17] (Ac-RRRRRRRRGGGGSEDDDWIDWGPTSDDD-NH2), the Ki under setting [4] was 140 ± 4 nM and the Ki under setting [5] is 140 ± 4 nM.
